Laboratory results as given in PMC4171606, “A novel copper(I) complex induces ER-stress-mediated apoptosis and sensitizes B-acute lymphoblastic leukemia cells to chemotherapeutic agents” (Oncotarget, 2014).

What was measured:
Type in all cases: cell-based, human
[1] = tested on: Bone marrow cells from healthy donors; assay: Annexin-V-FITC/PI viability by flow cytometry, 24 h; conditions: CP 2.5 μM and 5 μM
Protocol: CP growth inhibitory activity was measured on primary cultures derived from pediatric patients affected by B-acute lymphoblastic leukemia. […] In particular, in resting and in PHA-stimulated PBMC, and in CD19^+ cells GI50 was higher than 10 μM confirming that CP preferentially affects leukemia cells.
FIGURE 6 CP effects on B-ALL primary cultures (A) Blast cells from six B-ALL patients were incubated for 24 h with different concentrations of CP. For the sake of comparison CD19^+ cells from peripheral blood of healthy donors, and PBMC were also incubated with CP in the presence or absence of PHA. Cell viability were assayed by MTT analysis. Data are represented as mean ± S.E.M of four independent experiments. (B) Bone marrow cells from healthy donors were treated for 24 h with CP (2.5 μM and 5 μM). Cell viability was evaluated on the whole population by flow cytometry after staining the cells with Annexin-V-FITC and PI. are represented as mean ± S.E.M of 3 independent experiments. […]
Surface exposure of PS by apoptotic cells was measured by flow cytometry with a Coulter Cytomics FC500 (Beckmann Coulter, USA) by adding Annexin V-FITC and propidium iodide (PI) to cells according to the manufacturer's instructions (Annexin-V Fluos, Roche Diagnostic, Italy).

[2] = tested on: caspase-9, caspase-3 and -7; assay: Western blot, caspase-9, cleaved caspase-7, caspase-3 and PARP; conditions: SEM and RS4;11, CP 2.5 μM
Protocol: FIGURE 2 CP induces caspase-dependent apoptosis without mitochondria involvement (A) Assessment of mitochondrial membrane potential (ΔΨmt) after treatment of RS4;11 and SEM cells with CP (2.5 μM) for the indicated times. Cells were stained with the fluorescent probe JC-1. Data are represented as mean ± S.E.M. of three independent experiments. (B) Flow cytometric analysis of RS4;11 and SEM cells treated with CP (2.5 μM) for 24 h showing cytochrome c labeled with a monoclonal antibody conjugated to FITC. Representative image of three experiments with similar results. (C) Cells were incubated with CP 2.5 μM and 5 μM in the presence or absence of the pan-caspase inhibitor z-VAD.fmk (100 μM). Cell viability was determined after 48 h by MTT assay. Data are represented as mean ± S.E.M. of three independent experiments performed in triplicate. *p<0.01 vs CP alone. (D) Western blot analysis of Bcl-2, cleaved caspase-12, caspase-9, cleaved caspase-7, caspase-3 and PARP after treatment of SEM and RS4;11 cells with CP (2.5 μM) for the indicated times. To confirm equal protein loading, each membrane was stripped and reprobed with anti-β-actin antibody. […]
Cells were treated with CP and, after different times, were collected, centrifuged and washed with ice cold phosphate-buffered saline (PBS). […] The protein concentration in the supernatant was determined using the BCA protein assay (Pierce, Italy). […]

[3] = tested on: RS4;11 and SEM cells; assay: Cell cycle distribution by flow cytometry (PI); conditions: 24 h, different concentrations
Protocol: FIGURE 1 CP uptake and effects on cell cycle and apoptosis induction A) RS4;11, SEM, THP1, Jurkat cell lines and healthy PBMC were incubated with 6.25, 12.5 and 25 μM of CP for 24 h. The intracellular accumulation of CP was detected by GF-AAS analysis. B) SEM and RS4;11 cells were treated with the indicated concentrations of CP for 24 h, cell cycle distribution and Sub-G1 contents were analyzed by flow cytometry after cell staining with PI. The percentages of each phase of the cell cycle (G1, S, G2/M) were calculated on living cells whereas the percentages of cells with hypodiploid DNA content peak (subG1) was referred to cell population characterized by the appearance of subG1 peak. C) SEM and RS4;11 cells were incubated with 2.5 μM CP for the indicated times and analyzed by flow cytometry after double staining with Annexin-V-FITC and PI. Data are represented as mean ± S.E.M. of three independent experiments.
The effects of different concentrations of CP on cell cycle progression were examined in RS4;11 and SEM cells after 24 h of treatment.
5×10^5 RS4;11 and SEM cells in exponential growth were treated with different concentrations of CP for different times. After the incubation, cells were collected, centrifuged and fixed with ice-cold ethanol (70%) and stained with PI as described previously. DNA histograms were analyzed using Multicycle for Windows (Phoenix Flow Systems)

F[P-](F)(F)(F)(F)F.OCP(CO)CO.OCP(CO)CO.OCP(CO)CO.OCP(CO)CO.[Cu+] [CP, [Cu(thp)4][PF6]]
viability of lymphocyte and monocyte populations [1]: did not affect the viability | onset of caspase-9 activation and cleavage of caspase-3 and -7 [2]: ≥ 6 h | cell population with hypodiploid DNA content peak (subG1) [3]: concentration-dependent increase | effect on cell cycle progression [3]: did not affect cell cycle
